SMILES strings stand for the structures.

By melting point is commonly meant the temperature, or range, at which the solid turns liquid. `C/C=C(/NS(=O)(=O)c1ccc(C)cc1)C(=O)O`: the melting point was in the range of 150.5 to 151.5 °C.

Compound `CC(C)=C(NS(=O)(=O)Cc1ccccc1)C(=O)O` showed a melting point of 194 to 195 °C.

With `COc1ccc(S(=O)(=O)NC(C(=O)O)C(C)C)cc1` (stereo not shown), the melting point lay in the range of 116.5 to 117.5 °C.

As to `CC(C)=C(NS(=O)(=O)c1ccc(F)cc1)C(=O)O`, the melting point fell in the range of 172 to 173 °C.

`Cc1ccc(S(=O)(=O)N/C(=C/C(C)C)C(=O)O)cc1`: the melting point is 166.5 to 167.5 °C.

Compound `Cc1ccc(S(=O)(=O)NC(C(=O)O)C2CCCCC2)cc1` (stereo not shown) came in with a melting point of 182 to 184 °C.

Compound `CC(C)[C@H](NS(=O)(=O)Cc1ccccc1)C(=O)O` yielded a melting point of 120 to 121.5 °C.

`O=C(O)C(NS(=O)(=O)c1ccc(F)cc1)C1CCCCC1` (stereo not shown) registered a melting point of 143 to 145 °C.

In turn, `CC(C)[C@H](NS(=O)(=O)CCCc1ccccc1)C(=O)O` yielded a melting point of 151 to 152 °C.

In the case of `Cc1ccc(S(=O)(=O)NC(CC(C)C)C(=O)O)cc1` (stereo not shown), the melting point lay within 122 to 123 °C.

In turn, `CC(C)=C(NS(=O)(=O)CCCc1ccccc1)C(=O)O` came in with a melting point of 104.5 to 106 °C.

Turning to `O=C(O)C(NS(=O)(=O)c1ccc(F)cc1)=C1CCCCC1`, the melting point was 214 to 215 °C.

The compound `CCC(NS(=O)(=O)c1ccc(C)cc1)C(=O)O` (stereo not shown) showed a melting point of 133.5 to 135.5 °C.

With `COc1ccc(S(=O)(=O)NC(C(=O)O)=C(C)C)cc1`, the melting point was in the range of 162.5 to 163.5 °C.

On to `Cc1ccc(S(=O)(=O)NC(C(=O)O)=C2CCCCC2)cc1`, for which the melting point is 221 to 222 °C.

Regarding `CC(C)=C(NS(=O)(=O)c1ccc(C)cc1)C(=O)O`, the melting point lay in the range of 188.5 to 189.5 °C.

Values taken from patent US7579487B2 (dated 2009).
